pKi: −log10 of the molar value.
The compounds below were run against SGK1 (human) (UniProt O00141) (assay: Flashplate).
Sequence of SGK1 (human) (O00141 whole entry, looked up): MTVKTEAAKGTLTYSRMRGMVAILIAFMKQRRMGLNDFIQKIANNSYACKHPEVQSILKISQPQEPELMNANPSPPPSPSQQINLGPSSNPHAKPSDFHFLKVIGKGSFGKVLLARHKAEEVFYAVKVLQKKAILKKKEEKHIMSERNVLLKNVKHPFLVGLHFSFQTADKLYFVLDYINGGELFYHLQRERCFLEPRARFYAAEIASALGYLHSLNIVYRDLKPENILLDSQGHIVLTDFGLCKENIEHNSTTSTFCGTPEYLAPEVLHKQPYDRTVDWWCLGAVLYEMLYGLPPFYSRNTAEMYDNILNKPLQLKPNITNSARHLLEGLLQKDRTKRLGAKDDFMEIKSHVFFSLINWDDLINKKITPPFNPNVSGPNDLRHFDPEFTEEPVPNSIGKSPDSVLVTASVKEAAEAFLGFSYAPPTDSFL
Compound `Cc1cc(Nc2cc(N3CCN(C)CC3)nc(/C=C/c3ccccc3)n2)n[nH]1` has a pKi of under 5.00. `CNS(=O)(=O)c1ccccc1Nc1nc(Nc2cc(OC)c(OC)c(OC)c2)ncc1Cl` was tested, and the pKi was under 5.30. `COc1cccc(C(CN)NC(=O)c2ccc(-c3ccncc3)cc2)c1` (configuration not stated) was tested, and the pKi was 6.60. Compound `C[C@@H](Nc1c(Nc2ccncc2)c(=O)c1=O)C(C)(C)C` has a pKi of under 5.00. In the case of `COc1cc(S(C)(=O)=O)c(OC)cc1CC(=O)Nc1cc(N)c(C#N)c(OC(C)C)n1`, the pKi was under 5.00. Work on `N#C/C(=C\c1ccc(O)c(O)c1)C(=O)NCc1ccccc1` yielded a pKi of under 5.00. In the case of `COc1cc(-c2ccc3c(c2)Nc2ccc(CCOc4ccc(N5CCOCC5)cc4)cc2NC3=O)ccc1OCC(O)CO` (configuration not stated), the pKi was under 5.00. `Nc1ncnc2scc(C(=O)Nc3ccc(NC(=O)Nc4ccccc4)cc3)c12` was tested, and the pKi was under 5.00. Compound `Cc1nccn2c(-c3ccnc(NCC(C)(C)C(=O)O)n3)c(-c3ccc(F)cc3F)nc12` has a pKi of under 5.00. Compound `Cc1n[nH]c2ccc(-c3cncc(OC[C@@H](N)Cc4cccc(Cl)c4)c3)cc12` has a pKi of 6.80. `OCCNc1cc2cc(-c3ccsc3)ccc2cn1` was tested, and the pKi was 6.30. Work on `NCCCOc1cc2c(c(-c3ccc(Nc4nc5ccccc5o4)cc3)c1)CNC2=O` yielded a pKi of 5.10. In the case of `CN1CCN([C@H]2CC[C@H](n3cc(-c4ccc(Oc5ccccc5)cc4)c4c(N)ncnc43)CC2)CC1`, the pKi was under 5.00. In the case of `CC(C)(CO)CNc1nccc(-c2c(-c3ccc(F)cc3)nc3c(CCN)nccn23)n1`, the pKi was under 5.00. `Cc1ccccc1NC(=O)Nc1ccc(NC(=O)c2csc3ncnc(N)c23)cc1` showed a pKi of under 5.00. `Cc1ccc(F)c(-c2ccc3nnc(N)n3c2)c1` was tested, and the pKi was under 5.00. `O=C(Nc1cccc(N2CCOCC2)n1)Nc1ccnc2c(C(F)(F)F)cccc12` gave a pKi of under 5.00. For `COc1cccc([C@@H](C)NC(=O)c2ccc(-c3ccncc3)c(F)c2)c1`, the pKi was 6.50. For `NCCOc1cncc(/C=C/c2ccncc2)c1`, the pKi was under 5.00. With `CC(C)(C)OC(=O)n1cc(-c2cncn2C2CCCCC2)c2ccccc21` the pKi was under 5.00. Work on `Cc1ccc(F)c(NC(=O)Nc2ccc(-c3ccc4nccnc4c3N)cc2)c1` yielded a pKi of under 5.00. `Cc1ccc(NC(=O)Nc2ccc(-c3csc4ncnc(N)c34)cc2)cc1C` gave a pKi of under 5.00. In the case of `NC(=O)c1ccc(-c2c[nH]c3nccc(Cl)c23)cc1`, the pKi was 6.60. For `C[C@]1(O)C[C@@H](c2nc(-c3ccc4ccc(-c5ccccc5)nc4c3)c3c(N)nccn32)C1`, the pKi was under 5.00. `Cc1cccc(NC(=O)Nc2ccc(-c3ccc4nccnc4c3N)cc2)c1` was tested, and the pKi was under 5.00. With `CN(C)CCCC(=O)Nc1n[nH]c2nnc(-c3cccc(F)c3F)cc12` the pKi was under 5.00. `Cc1cc(C)cc(NC(=O)Nc2ccc(-c3cccc4c3CNC4=O)c(C)c2)c1` was tested, and the pKi was under 5.00. Work on `NC(=O)c1sc2c(Br)ccc(Cl)c2c1N` yielded a pKi of 5.50. Compound `O=C(O)c1c2c(nc3ccccc13)C(=C1CCCC1)CC2` has a pKi of under 5.00. `NC(=O)c1cc2c(-c3ccc(F)cc3)cncc2s1` gave a pKi of 5.40. Compound `Fc1ccc(-c2nc3occn3c2-c2ccnc(NC3CCNCC3)n2)cc1` has a pKi of under 5.00. `O=C(NCCCCCCNC(=O)NCc1cccnc1)NCc1cccnc1` showed a pKi of under 5.00. For `Cc1ccc(C(=O)Nc2c(C(N)=O)sc3ccc(Cl)c(Cl)c23)cc1`, the pKi was 5.50. `Cc1cccc(NC(=O)Nc2ccc(-c3csc4c(-c5cnn(C[C@@H](C)O)c5)cnc(N)c34)cc2)c1` was tested, and the pKi was under 5.00. `CS(=O)c1ccc(-c2nc(-c3ccc(F)cc3)c(-c3ccncc3)[nH]2)cc1` (configuration not stated) showed a pKi of under 5.10. In the case of `CCCOc1cccc([C@@H](C)NC(=O)c2ccc(-c3ccncc3)cc2)c1`, the pKi was 5.40. Work on `Nc1ncc(-c2cnn(CCO)c2)c2scc(-c3ccc(NC(=O)Nc4cccc(F)c4)cc3)c12` yielded a pKi of 5.60. For `Cc1n[nH]c2c1C(c1ccccc1I)C(C#N)=C(N)O2` (configuration not stated), the pKi was under 5.00. `O=C(NS(=O)(=O)c1ccc(NCCSc2ccc(O)cc2)c([N+](=O)[O-])c1)c1ccc(-c2ccc(F)cc2)cc1` showed a pKi of under 5.00. For `CSc1c[nH]c2ncnc(NCCCO)c12`, the pKi was under 5.00. `COc1cccc(C(=O)Nc2cnc3[nH]cc(-c4ccccc4)c3c2)c1` was tested, and the pKi was 5.70. In the case of `N#Cc1ccc(-c2n[nH]c3c2Cc2ccc(OCCCCN4CCOCC4)cc2-3)cn1`, the pKi was under 5.00. For `O=C(NNC(=S)Nc1ccc(F)cc1)C(O)(c1ccccc1)c1ccccc1`, the pKi was under 5.00. `NC(=O)c1ccc(N[C@H]2CCCC[C@H]2N)nc1Nc1cccc(Cl)c1` was tested, and the pKi was under 5.20. `COc1cc(Nc2nccc(Nc3cc(C4CCCCC4)no3)n2)cc(OC)c1OC` was tested, and the pKi was under 5.00. For `Cc1n[nH]c2ccc(-c3cncc(OC[C@@H](N)Cc4ccc(Cl)c(Cl)c4)c3)cc12`, the pKi was 7.10. Compound `CC(C)Oc1nccn2c(-c3ccnc(NCC(C)(C)CO)n3)c(-c3ccc(F)cc3F)nc12` has a pKi of under 5.00. In the case of `COc1cccc([C@@H](C)NC(=O)c2ccc(-c3ccncc3)cc2NCCCN)c1`, the pKi was 6.40. In the case of `Nc1n[nH]c2cc(-c3ccc(NC(=O)Nc4cccc(C(F)(F)F)c4)cc3)ccc12`, the pKi was under 5.00. In the case of `COc1cc(-c2nn([C@H]3CC[C@H](N4CCN(C(C)=O)CC4)CC3)c3ncnc(N)c23)ccc1NC(=O)c1cc2ccccc2n1C`, the pKi was under 5.00. Compound `Cc1nn(C)c(C)c1-c1cccc2c(CCCOc3cccc4ccccc34)c(C(=O)O)[nH]c12` has a pKi of under 5.00. `O=C(N[C@H](CO)Cc1ccccc1)c1ccc(-c2ccncc2)cc1F` showed a pKi of under 5.00. `Cc1cccc(NC(=O)Nc2ccc(-c3cncc4c3c(N)nn4C)cc2)c1` showed a pKi of under 5.10. With `Nc1ncc(/C=C/C(=O)NCCCn2ccnc2)c2scc(-c3ccc(Br)cc3)c12` the pKi was under 5.00. Work on `CN(C(=O)C1CCCCC1)c1ccc2c(c1)nc(NC(=O)c1ccc(C#N)cc1)n2CCC(N)=O` yielded a pKi of under 5.00. `COc1ccc(Nc2nccc(Nc3c(N[C@H](C)C(C)(C)C)c(=O)c3=O)n2)cc1OC` gave a pKi of 5.70. Compound `CNC(=O)/C=C/c1cnc(N)c2c(-c3ccc4sc(C)nc4c3)csc12` has a pKi of under 5.00. Work on `COc1ccc2c(NC(=O)Nc3cc(C(F)(F)F)ccn3)ccnc2c1` yielded a pKi of under 5.00. With `CN(C)CC(C)(C)CNc1nccc(-c2c(-c3ccc(F)cc3)nc3occn23)n1` the pKi was under 5.00. `Cc1ccc(CNc2ccc3nnc(-c4ccccc4)n3n2)cc1` gave a pKi of under 5.00. With `COc1cccc(NC(=O)c2cnn3c(-c4ccccc4)ccnc23)c1` the pKi was under 5.00. With `O=C(Nc1cnc2[nH]cc(-c3ccccc3)c2c1)c1c(F)cccc1F` the pKi was 6.20. `Cc1nc2c(sc3c(Br)ccc(Cl)c32)c(=O)o1` showed a pKi of under 5.00. `Cc1cc(C)cc(NC(=O)Nc2ccc3c(c2)CCc2sc4ncnc(N)c4c2-3)c1` was tested, and the pKi was under 5.00. `Cc1cccc(NC(=O)Nc2ccc(-c3csc4c(-c5cn[nH]c5)cnc(N)c34)cc2)c1` showed a pKi of under 5.00. `CNC(=O)c1ccccc1Nc1nc(Nc2ccc(N3CCOCC3)cc2OC)ncc1Cl` gave a pKi of under 5.10. Compound `O=C(c1cc(-c2ccc3[nH]ncc3c2)on1)N1CCCCC1` has a pKi of under 5.00. For `O=C(c1cccc(-c2cnc3[nH]ccc3c2)c1)N1CCOCC1`, the pKi was under 5.00. Compound `CC(=O)c1cccc(-c2cnc3[nH]ccc3c2)c1` has a pKi of under 5.00. In the case of `O=C(O)c1ccccc1Nc1ccnc(Nc2ccc3[nH]ncc3c2)n1`, the pKi was 6.30. With `Cc1cccc(NC(=O)Nc2ccc(-c3csc4c(C#CCCCCCCCCN)cnc(N)c34)cc2)c1` the pKi was 5.70. `Clc1ccc(-c2n[nH]cc2-c2ccncn2)cc1Cl` gave a pKi of under 5.00. Compound `CCOc1nc(NC(=O)Cc2cc(OC)c(S(C)(=O)=O)cc2OC)cc(N)c1Cl` has a pKi of under 5.00. `CSc1ccc2nc3c(c(Cl)c2c1)CCNC3=O` was tested, and the pKi was under 5.00. Work on `Nc1nccc(-c2c(-c3ccc(F)cc3)ncn2C2CCNCC2)n1` yielded a pKi of 5.20. `COc1nccn2c(-c3ccnc(NCC(C)(C)CO)n3)c(-c3ccc(F)cc3F)nc12` showed a pKi of under 5.00. `CCc1nc(-c2cccc(C)c2)c(-c2ccnc(NC(=O)c3ccccc3)c2)s1` was tested, and the pKi was under 5.00. `Nc1ncc(-c2ccncc2)c2scc(-c3ccc(NC(=O)Nc4cc(C(F)(F)F)ccc4F)cc3)c12` gave a pKi of 6.20. In the case of `Cc1cc(C)c2oc(Nc3ccc(-c4cccc(C(N)=O)c4N)cc3F)nc2c1`, the pKi was under 5.00. Work on `O=C(Nc1cnccn1)Nc1ccnc2c(F)cccc12` yielded a pKi of under 5.00. In the case of `Nc1nccn2c(C3CC(CN4CCCC4)C3)nc(-c3cccc(OCc4ccccc4)c3)c12` (configuration not stated), the pKi was under 5.00. For `Cc1cc(OC2CCCC2)c(NC(=O)Nc2cnc(C#N)cn2)cc1Cl`, the pKi was under 5.00. Compound `CCCC(=O)Nc1cccc(-c2nc(Nc3ccc4[nH]ncc4c3)c3cc(OCCN4CCCC4)ccc3n2)c1` has a pKi of 6.30. `COc1cccc(CNC(=O)c2cc3c(-c4ccccc4)n[nH]c3s2)c1` gave a pKi of 6.10. With `Cc1n[nH]c2cccc(-c3ccc(NC(=O)Nc4cccc(C(F)(F)F)c4)cc3)c12` the pKi was under 5.00. In the case of `Cc1ccccc1-c1c(C(=O)O)n(CCCOc2cccc3ccccc23)c2ccccc12`, the pKi was under 5.00. Compound `Clc1cc(-c2c[nH]c3ncccc23)nc(NC2CCCCC2)n1` has a pKi of 6.10. Work on `C#Cc1cccc(Nc2ncnc3cc(OCCOC)c(OCCOC)cc23)c1` yielded a pKi of under 5.00. `COc1nccc(-c2c(-c3ccc(F)cc3)ncn2C2CCNCC2)n1` showed a pKi of under 5.00. `COc1cc2c(N3CCN(C(=O)Nc4ccc(OC(C)C)cc4)CC3)ncnc2cc1OCCCN1CCCCC1` gave a pKi of under 5.10. Compound `c1cc2cc(-c3ccc4cn[nH]c4c3)cnc2[nH]1` has a pKi of 5.70. Work on `Oc1ccc(Nc2[nH]nc(-c3ccc(O)cc3)c2-c2ccc(O)cc2)cc1` yielded a pKi of 7.00. In the case of `COc1ccc(NC(=O)Nc2ccc(-c3cccc4onc(N)c34)cc2)cc1Cl`, the pKi was under 5.00. Compound `CCOc1nc(C(=O)NCc2ccccc2S(N)(=O)=O)cc(N)c1C#N` has a pKi of under 5.20. Work on `O=C1/C(=N\Nc2cccc3c(=O)[nH][nH]c(=O)c23)C(c2ccccc2)=NN1c1ccccc1` yielded a pKi of under 5.00. `COC(=O)c1c(-c2ccc(NC(=O)Nc3ccccc3)cc2)c2c(N)ncnn2c1C` showed a pKi of 6.20. `Oc1ccc(-c2n[nH]c(Nc3cccc(Cl)c3)c2-c2ccc(O)cc2)cc1` was tested, and the pKi was 6.20. In the case of `N[C@H](COc1cc(/C=C/c2ccncc2)cnc1Cl)Cc1c[nH]c2ccccc12`, the pKi was under 5.00. In the case of `O=C1NCCc2[nH]c(-c3ccnc(/C=C/c4ccccc4)c3)cc21`, the pKi was 6.00. With `Cc1cccc(/C=N/Nc2cc(N3CCOCC3)nc(OCCc3ccccn3)n2)c1` the pKi was under 5.00. For `Cc1c(-c2cccc(OCc3ccccc3)c2)c2c(N)ncnc2n1[C@H]1CC[C@@H](N2CCCC2)CC1`, the pKi was under 5.00. Work on `Clc1ccc(CNc2ccc3nnc(-c4ccccc4)n3n2)cc1` yielded a pKi of under 5.00. With `OCCCNc1ncnc2[nH]cc(-c3ccccc3)c12` the pKi was under 5.10. With `Oc1ccc(Nc2ncnc3scc(Cl)c23)cc1` the pKi was under 5.00. With `COc1ccc(-c2ccc(NC(=O)Nc3cccc(Br)c3)cc2)c2c(N)noc12` the pKi was under 5.00. Work on `COc1cc(N2CCC(N3CCN(C)CC3)CC2)ccc1Nc1ncc(Cl)c(Nc2ccccc2S(=O)(=O)C(C)C)n1` yielded a pKi of under 5.00. `C[C@H](Nc1c(Nc2ccncc2)c(=O)c1=O)C1CCCCC1` gave a pKi of under 5.00.

From the kinase profiling compilation of Christmann-Franck et al. (2016)
